Results reported in patent publication US20220380342A1, “BIPHENYL DERIVATIVES FOR BLOCKING PD-1/PD-L1 INTERACTION, PREPARATION METHOD THEREFOR AND USE THEREOF” (Abbisko Therapeutics Co., Ltd., priority 2019, published 2022).

Legend:
[1] = molecular target: T1, interaction between PD-1 and PD-L1 expressed on cell surfaces (Jurkat/NF-κB-luc/PD1 cells cocultured with Raji-PD-L1 cells) (Homo sapiens, UniProt Q9NZQ7); assay: Jurkat reporter gene cellular assay; type: cell-based; conditions: OKT3 1 μg/mL stimulation, 6 hrs, activation fold vs DMSO
T1 construct: expressed in transfected cells; host or cells: Raji cells (PD-L1); Jurkat cells (PD-1, NF-κB-luc reporter)
T1 sequence (Q9NZQ7 19-290): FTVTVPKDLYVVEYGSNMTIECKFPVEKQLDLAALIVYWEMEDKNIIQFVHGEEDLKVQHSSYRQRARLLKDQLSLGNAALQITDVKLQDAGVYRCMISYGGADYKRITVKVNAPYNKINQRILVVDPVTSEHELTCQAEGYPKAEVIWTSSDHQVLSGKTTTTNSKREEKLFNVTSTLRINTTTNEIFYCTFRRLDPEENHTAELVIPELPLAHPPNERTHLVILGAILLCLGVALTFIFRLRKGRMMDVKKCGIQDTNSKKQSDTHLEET
Method: The effect of compounds of the examples of the present invention on the interaction between PD-1 and PD-L1 expressed on cell surfaces, and the related influence on T cell functions, were determined by a Jurkat reporter gene cellular assay.
Briefly, the reporter gene plasmid of NF-κB-luc and the plasmid of human PD-1 were transfected into Jurkat cells to establish a stably transfected cell line capable of stably expressing both PD-1 and NF-κB-Luc reporter genes; the expression level of PD-1 on the cell surface was confirmed by flow cytometry; and the expression of the reporter gene was confirmed via the response of the reporter gene stimulated by OKT-3 and Raji cells.
In addition, the plasmid of human PD-L1 was transfected into Raji cells to obtain a cell line capable of stably expressing PD-L1. Jurkat/NF-κB-luc/PD1 cells and Raji-PD-L1 cells were then cocultured and stimulated with OKT-3. On this basis, the compounds were added, and the enhancement of the signal pathway of T cell activation by the inhibitory effect of the compounds on the interaction between PD-1 and PD-L1 was evaluated by readings of reporter gene responses. The specific experimental process was as follows:
1) 30 μL of compound or antibody solution was added to each well of a white 96-well plate (Corning, 3610) at different diluted concentrations, and 10 μL of OKT3 (Biolegend, 317326) was then added (the final concentration of OKT3: 1 μg/mL);
2) 20 μL of Raji-PD-L1 cell suspension was added to each well with 5*10^4 cells for each well, and was incubated in an incubator for 20 min;
3) 20 μL of Jurkat/NF-Kb-luc/PD-1 cell suspension was added to each well with 5*10^4 cells for each well, and was well mixed, and 6 hrs later, Bright-glo (Promega, E2620) was applied and plates were read on Envision;
4) The reading of each well treated with the compound was compared with the reading of each well treated with DMSO to obtain the activation fold of the compound; and
5) EC50 values of compounds of the examples of the present invention were determined by non-linear regression analysis of activation folds at different compound concentrations.

[2] = molecular target: T2, interaction between PD-1 and PD-L1 (Homo sapiens, UniProt Q9NZQ7); assay: PD1-PDL1 HTRF binding activity test; conditions: Cisbio PD-1/PD-L1 binding assay kit; percent inhibition vs DMSO
T2 construct: purchased Cisbio 64ICP01PEG or 64ICP01PEH
T2 sequence (Q9NZQ7 19-238 limits assumed): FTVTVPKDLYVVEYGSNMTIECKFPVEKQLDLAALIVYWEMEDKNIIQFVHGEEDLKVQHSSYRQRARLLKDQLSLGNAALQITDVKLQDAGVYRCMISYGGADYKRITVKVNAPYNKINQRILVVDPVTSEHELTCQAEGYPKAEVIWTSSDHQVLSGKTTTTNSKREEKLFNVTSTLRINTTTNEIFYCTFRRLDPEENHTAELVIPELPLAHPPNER
Method: The effect of compounds of the examples of the present invention on the interaction between PD-1 and PD-L1 was determined by the PD-1/PD-L1 binding assay kit from Cisbio (#64ICP01PEG or 64ICP01PEH). The detailed experimental process was as follows:
1) Pre-diluted compound solution, 4 μL of Tag1-PD-L1 and 4 μL of Tag2-PD1 were added to each well of a 384-well plate;
2) After the mixture was incubated at room temperature for 15 min, 5 μL of anti-Tag1-Eu3+ antibody and 5 μL of anti-Tag2-XL665 antibody were then added;
3) After incubated for 2 hrs at room temperature or overnight at 4° C., plates were read on Envision of Perkin Elmer; and readings at 665 nm and 620 nm were recorded, and the ratio of the two readings was taken as a reading for each well;
4) The reading of each well after compound treatment was compared with the reading of DMSO treated wells to obtain the percent inhibition of the compound; and
5) IC50 values of compounds of the examples of the present invention were determined by non-linear regression analysis of percent inhibition at different compound concentrations.

| SMILES | EC50 [1] [nM] | IC50 [2] [nM] |
| --- | --- | --- |
| Cc1c(NC(=O)c2cc(C3CC3)c(CN[C@H]3CCOC3)cn2)cccc1-c1cccc(NC(=O)c2cc(C3CC3)c(CN3CCCC[C@H]3C(=O)O)cn2)c1C [Example 25, (S)-1-((4-cyclopropyl-6-((3′-(4-cyclopropyl-5-((((S)-tetrahydrofuran-3-yl)amino)methyl)picolinamido)-2,2′-dimethyl-[1,1′-biphenyl]-3-yl)carbamoyl)pyridin-3-yl)methyl)piperidine-2-carboxylic acid] | 8.7 | 0.91 |
| Cc1c(NC(=O)c2cc(C3CC3)c(CN[C@H](CO)C(=O)O)cn2)cccc1-c1cccc(NC(=O)c2cc(C3CC3)c(CN3CC[C@@H](O)C3)cn2)c1C [Example 53, ((4-cyclopropyl-6-((3′-(4-cyclopropyl-5-(((R)-3-hydroxypyrrolidin-1-yl)methyl)picolinamido)-2,2′-dimethyl-[1, 1′-biphenyl]-3-yl)carbamoyl)pyridin-3-yl)methyl)-D-serine] | 86.8 | 3.61 |
| Cc1c(NC(=O)c2cc(C3CC3)c(CN[C@@H](C)CO)cn2)cccc1-c1cccc(NC(=O)c2cc(C3CC3)c(CN[C@H](CO)C(=O)O)cn2)c1C [Example 39, ((4-cyclopropyl-6-((3′-(4-cyclopropyl-5-((((S)-1-hydroxypropan-2-yl)amino)methyl)picolinamido)-2,2′-dimethyl-[1,1′-biphenyl]-3-yl)carbamoyl)pyridin-3-yl)methyl)-D-serine] | 36 | 1.89 |
| Cc1c(NC(=O)c2cc(C3CC3)c(CNC(C)C)cn2)cccc1-c1cccc(NC(=O)c2cc(C3CC3)c(CN3CCCC[C@H]3C(=O)O)cn2)c1C [Example 9, (S)-1-((4-cyclopropyl-6-((3′-(4-cyclopropyl-5-((isopropylamino)methyl)picolinamido)-2,2′-dimethyl-[1,1′-biphenyl]-3-yl)carbamoyl)pyridin-3-yl)methyl) piperidine-2-carboxylic acid] | 33.9 | 5.1 |
| Cc1c(NC(=O)c2cc(C3CC3)c(CNC3CC3)cn2)cccc1-c1cccc(NC(=O)c2cc(C3CC3)c(CN3CCCC[C@H]3C(=O)O)cn2)c1C [Example 10, (S)-1-((4-cyclopropyl-6-((3′-(4-cyclopropyl-5-((cyclopropylamino)methyl)picolinamido)-2,2′-dimethyl-[1,1′-biphenyl]-3-yl)carbamoyl)pyridin-3-yl)methyl) piperidine-2-carboxylic acid] | 120 | 3.38 |
| Cc1c(NC(=O)c2cc(C3CC3)c(CN3CC[C@H](O)C3)cn2)cccc1-c1cccc(NC(=O)c2cc(C3CC3)c(CN3CCCC[C@H]3C(=O)O)cn2)c1C [Example 14, (S)-1-((4-cyclopropyl-6-((3′-(4-cyclopropyl-5-(((S)-3-hydroxypyrrolidin-1-yl)methyl)picolinamido)-2,2′-dimethyl-[1,1′-biphenyl]-3-yl)carbamoyl)pyridin-3-yl)methyl)piperidine-2-carboxylic acid] | 8.2 | 1.76 |
| Cc1c(NC(=O)c2cc(C3CC3)c(CN[C@H](CO)C(=O)O)cn2)cccc1-c1cccc(NC(=O)c2cc(C3CC3)c(CN3CCC[C@H]3CO)cn2)c1C [Example 54] | 62.3 | 0.91 |
| Cc1c(NC(=O)c2cc(C3CC3)c(CN[C@H]3CCC[C@@H]3O)cn2)cccc1-c1cccc(NC(=O)c2cc(C3CC3)c(CN3CCCC[C@H]3C(=O)O)cn2)c1C [Example 4, (S)-1-((4-cyclopropyl-6-((3′-(4-cyclopropyl-5-((((1S,2S)-2-hydroxycyclopentyl)amino)methyl)picolinamido)-2, 2′-dimethyl-[1,1′-biphenyl]-3-yl)carbamoyl)pyridin-3-yl)methyl)piperidine-2-carboxylic acid] | 3.2 | 1.02 |
| Cc1c(NC(=O)c2cc(C3CC3)c(CN[C@H](CO)C(=O)O)cn2)cccc1-c1cccc(NC(=O)c2cc(C3CC3)c(CN3CC(C)(O)C3)cn2)c1C [Example 36, ((4-cyclopropyl-6-((3′-(4-cyclopropyl-5-((3-hydroxy-3-methylazetidin-1-yl)methyl)picolinamido)-2,2′-dimethyl-[1,1′-biphenyl]-3-yl)carbamoyl)pyridin-3-yl)methyl)-D-serine] | 52 | 0.72 |
| Cc1c(NC(=O)c2cc(C3CC3)c(CNC3CCOCC3)cn2)cccc1-c1cccc(NC(=O)c2cc(C3CC3)c(CN3CCCC[C@H]3C(=O)O)cn2)c1C [Example 24, (S)-1-((4-cyclopropyl-6-((3′-(4-cyclopropyl-5-(((tetrahydro-2H-pyran-4-yl)amino)methyl)picolinamido)-2,2′-dimethyl-[1,1′-biphenyl]-3-yl)carbamoyl)pyridin-3-yl)methyl)piperidine-2-carboxylic acid] | 52 | 0.91 |
| CCOC(=O)[C@@H](CO)NCc1cnc(C(=O)Nc2cccc(-c3cccc(NC(=O)c4cc(C5CC5)c(CN[C@H](C)CO)cn4)c3C)c2C)cc1C1CC1 [Example 38-1, Ethyl ((4-cyclopropyl-6-((3′-(4-cyclopropyl-5-((((R)-1-hydroxypropan-2-yl)amino)methyl)picolinamido)-2,2′-dimethyl-[1,1′-biphenyl]-3-yl)carbamoyl)pyridin-3-yl)methyl)-D-serinate] | 219 | 4.77 |
| Cc1c(NC(=O)c2cc(C3CC3)c(CN3CCC[C@@H]3CO)cn2)cccc1-c1cccc(NC(=O)c2cc(C3CC3)c(CN3CCCC[C@H]3C(=O)O)cn2)c1C [Example 28, (S)-1-((4-cyclopropyl-6-((3′-(4-cyclopropyl-5-(((R)-2-(hydroxymethyl)pyrolidin-1-yl)methyl)picolinamido)-2, 2′-dimethyl-[1,1′-biphenyl]-3-yl)carbamoyl)pyridin-3-yl)methyl)piperidine-2-carboxylic acid] | 35.3 | 4.17 |
| Cc1c(NC(=O)c2cc(C3CC3)c(CN[C@H]3CCC[C@@H]3O)cn2)cccc1-c1cccc(NC(=O)c2cc(C3CC3)c(CN[C@H](CO)C(=O)O)cn2)c1C [Example 40, ((4-cyclopropyl-6-((3′-(4-cyclopropyl-5-((((1S,2S)-2-hydroxycyclopentyl)amino)methyl)picolinamido)-2,2′-dimethyl-[1,1′-biphenyl]-3-yl)carbamoyl)pyridin-3-yl)methyl)-D-serine] | 39.2 | 1.68 |
| Cc1c(NC(=O)c2cc(C3CC3)c(CN[C@@](C)(CO)C(=O)O)cn2)cccc1-c1cccc(NC(=O)c2cc(C3CC3)c(CN[C@@](C)(CO)C(=O)O)cn2)c1C [Example 67, (2S,2′S)-2,2′-((((((2,2′-dimethyl-[1,1′-biphenyl]-3,3′-diyl)bis(azanediyl))bis(carbonyl))bis(4-cyclopropylpyridine-6,3-diyl))bis(methylene))bis(azanediyl))bis(3-hydroxy-2-methylpropanoic acid)] | 19.7 | 0.61 |
| Cc1c(NC(=O)c2cc(C3CC3)c(CN3CC(C)(O)C3)cn2)cccc1-c1cccc(NC(=O)c2cc(C3CC3)c(CN3CCCC[C@H]3C(=O)O)cn2)c1C [Example 15, (S)-1-((4-cyclopropyl-6-((3′-(4-cyclopropyl-5-((3-hydroxy-3-methylazetidin-1-yl)methyl)picolinamido)-2,2′-dimethyl-[1,1′-biphenyl]-3-yl)carbamoyl)pyridin-3-yl)methyl)piperidine-2-carboxylic acid] | 15.1 | 0.68 |
